# Results: ChEMBL document CHEMBL3232938, “Design, synthesis, and biological evaluation of dihydroartemisinin-fluoroquinolone conjugates as a novel type of potential antitubercular agents” (2014)
# Test system: Mycobacterium tuberculosis
# Assay: Antibacterial activity against multidrug-resistant 1 ug/ml Mycobacterium tuberculosis clinical isolate 930 assessed as growth inhibition after 7 days by microtiter plate assay
# Assay type: functional
# Details: isolate 930, 168 h
row,SMILES,MIC
1,C[C@H]1[C@@H](OCCCNC2CCN(c3c(F)cc4c(=O)c(C(=O)O)cn(C5CC5)c4c3Cl)C2)O[C@@H]2O[C@@]3(C)CC[C@H]4[C@H](C)CC[C@@H]1[C@@]24OO3 (stereo not given in full),4 µg/mL
2,C[C@H]1[C@@H](OCCNC2CCN(c3c(F)cc4c(=O)c(C(=O)O)cn(C5CC5)c4c3Cl)C2)O[C@@H]2O[C@@]3(C)CC[C@H]4[C@H](C)CC[C@@H]1[C@@]24OO3 (stereo not given in full),4 µg/mL
3,C[C@H]1[C@@H](O)O[C@@H]2O[C@@]3(C)CC[C@H]4[C@H](C)CC[C@@H]1[C@@]24OO3 [ARTENIMOL],> 16 µg/mL
4,NC1CCN(c2c(F)cc3c(=O)c(C(=O)O)cn(C4CC4)c3c2Cl)C1 (stereo not given) [CLINAFLOXACIN],4 µg/mL
5,CCn1cc(C(=O)O)c(=O)c2cc(F)c(N3CCNCC3)cc21 [NORFLOXACIN],> 16 µg/mL
6,O=C(O)c1cn(-c2ccc(F)cc2)c2cc(N3CCNCC3)c(F)cc2c1=O [SARAFLOXACIN],> 16 µg/mL

# Test system: Mycobacterium tuberculosis
# Assay: Antibacterial activity against multidrug-resistant 1 ug/ml Mycobacterium tuberculosis clinical isolate 1259 assessed as growth inhibition after 7 days by microtiter plate assay
# Assay type: functional
# Details: isolate 1259, 168 h
row,SMILES,MIC
1,C[C@H]1[C@@H](OCCCNC2CCN(c3c(F)cc4c(=O)c(C(=O)O)cn(C5CC5)c4c3Cl)C2)O[C@@H]2O[C@@]3(C)CC[C@H]4[C@H](C)CC[C@@H]1[C@@]24OO3 (stereo not given in full),2 µg/mL
2,C[C@H]1[C@@H](OCCNC2CCN(c3c(F)cc4c(=O)c(C(=O)O)cn(C5CC5)c4c3Cl)C2)O[C@@H]2O[C@@]3(C)CC[C@H]4[C@H](C)CC[C@@H]1[C@@]24OO3 (stereo not given in full),2 µg/mL
3,C[C@H]1[C@@H](O)O[C@@H]2O[C@@]3(C)CC[C@H]4[C@H](C)CC[C@@H]1[C@@]24OO3 [ARTENIMOL],> 16 µg/mL
4,NC1CCN(c2c(F)cc3c(=O)c(C(=O)O)cn(C4CC4)c3c2Cl)C1 (stereo not given) [CLINAFLOXACIN],0.125 µg/mL
5,CCn1cc(C(=O)O)c(=O)c2cc(F)c(N3CCNCC3)cc21 [NORFLOXACIN],2 µg/mL
6,O=C(O)c1cn(-c2ccc(F)cc2)c2cc(N3CCNCC3)c(F)cc2c1=O [SARAFLOXACIN],4 µg/mL

# Test system: Mycobacterium tuberculosis
# Assay: Antibacterial activity against multidrug-resistant 1 ug/ml Mycobacterium tuberculosis clinical isolate 1237 assessed as growth inhibition after 7 days by microtiter plate assay
# Assay type: functional
# Details: isolate 1237, 168 h
row,SMILES,MIC
1,C[C@H]1[C@@H](OCCCNC2CCN(c3c(F)cc4c(=O)c(C(=O)O)cn(C5CC5)c4c3Cl)C2)O[C@@H]2O[C@@]3(C)CC[C@H]4[C@H](C)CC[C@@H]1[C@@]24OO3 (stereo not given in full),2 µg/mL
2,C[C@H]1[C@@H](OCCNC2CCN(c3c(F)cc4c(=O)c(C(=O)O)cn(C5CC5)c4c3Cl)C2)O[C@@H]2O[C@@]3(C)CC[C@H]4[C@H](C)CC[C@@H]1[C@@]24OO3 (stereo not given in full),2 µg/mL
3,C[C@H]1[C@@H](O)O[C@@H]2O[C@@]3(C)CC[C@H]4[C@H](C)CC[C@@H]1[C@@]24OO3 [ARTENIMOL],> 16 µg/mL
4,NC1CCN(c2c(F)cc3c(=O)c(C(=O)O)cn(C4CC4)c3c2Cl)C1 (stereo not given) [CLINAFLOXACIN],1 µg/mL
5,CCn1cc(C(=O)O)c(=O)c2cc(F)c(N3CCNCC3)cc21 [NORFLOXACIN],> 16 µg/mL
6,O=C(O)c1cn(-c2ccc(F)cc2)c2cc(N3CCNCC3)c(F)cc2c1=O [SARAFLOXACIN],> 16 µg/mL

# Test system: Mycobacterium tuberculosis
# Assay: Antibacterial activity against multidrug-resistant 1 ug/ml Mycobacterium tuberculosis clinical isolate 1256 assessed as growth inhibition after 7 days by microtiter plate assay
# Assay type: functional
# Details: isolate 1256, 168 h
row,SMILES,MIC
1,C[C@H]1[C@@H](OCCCNC2CCN(c3c(F)cc4c(=O)c(C(=O)O)cn(C5CC5)c4c3Cl)C2)O[C@@H]2O[C@@]3(C)CC[C@H]4[C@H](C)CC[C@@H]1[C@@]24OO3 (stereo not given in full),16 µg/mL
2,C[C@H]1[C@@H](OCCNC2CCN(c3c(F)cc4c(=O)c(C(=O)O)cn(C5CC5)c4c3Cl)C2)O[C@@H]2O[C@@]3(C)CC[C@H]4[C@H](C)CC[C@@H]1[C@@]24OO3 (stereo not given in full),16 µg/mL
3,C[C@H]1[C@@H](O)O[C@@H]2O[C@@]3(C)CC[C@H]4[C@H](C)CC[C@@H]1[C@@]24OO3 [ARTENIMOL],> 16 µg/mL
4,NC1CCN(c2c(F)cc3c(=O)c(C(=O)O)cn(C4CC4)c3c2Cl)C1 (stereo not given) [CLINAFLOXACIN],0.5 µg/mL
5,CCn1cc(C(=O)O)c(=O)c2cc(F)c(N3CCNCC3)cc21 [NORFLOXACIN],16 µg/mL
6,O=C(O)c1cn(-c2ccc(F)cc2)c2cc(N3CCNCC3)c(F)cc2c1=O [SARAFLOXACIN],16 µg/mL

# Test system: Mycobacterium tuberculosis
# Assay: Antibacterial activity against multidrug-resistant 1 ug/ml Mycobacterium tuberculosis clinical isolate 1288 assessed as growth inhibition after 7 days by microtiter plate assay
# Assay type: functional
# Details: isolate 1288, 168 h
row,SMILES,MIC
1,C[C@H]1[C@@H](OCCCNC2CCN(c3c(F)cc4c(=O)c(C(=O)O)cn(C5CC5)c4c3Cl)C2)O[C@@H]2O[C@@]3(C)CC[C@H]4[C@H](C)CC[C@@H]1[C@@]24OO3 (stereo not given in full),0.125 µg/mL
2,C[C@H]1[C@@H](OCCNC2CCN(c3c(F)cc4c(=O)c(C(=O)O)cn(C5CC5)c4c3Cl)C2)O[C@@H]2O[C@@]3(C)CC[C@H]4[C@H](C)CC[C@@H]1[C@@]24OO3 (stereo not given in full),0.125 µg/mL
3,C[C@H]1[C@@H](O)O[C@@H]2O[C@@]3(C)CC[C@H]4[C@H](C)CC[C@@H]1[C@@]24OO3 [ARTENIMOL],> 16 µg/mL
4,NC1CCN(c2c(F)cc3c(=O)c(C(=O)O)cn(C4CC4)c3c2Cl)C1 (stereo not given) [CLINAFLOXACIN],1 µg/mL
5,CCn1cc(C(=O)O)c(=O)c2cc(F)c(N3CCNCC3)cc21 [NORFLOXACIN],> 16 µg/mL
6,O=C(O)c1cn(-c2ccc(F)cc2)c2cc(N3CCNCC3)c(F)cc2c1=O [SARAFLOXACIN],> 16 µg/mL
